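Exposure lasted 48 hours, with cells grown in 96-well plates and compounds tested at five concentrations. TGI is the concentration that stops growth completely.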
What was measured:
Assay in all cases: NCI-60 cell line screen, 48 h
[1] = test system: KM12 colon
[2] = test system: SK-OV-3 ovarian
[3] = test system: T-47D breast
[4] = test system: ACHN renal
[5] = test system: HL-60(TB) leukemia
[6] = test system: HCT-15 colon
[7] = test system: M14 melanoma
[8] = test system: SW-620 colon
[9] = test system: OVCAR-4 ovarian
[10] = test system: NCI-H522 lung
[11] = test system: NCI-H226 lung
[12] = test system: RXF 393 renal
[13] = test system: UACC-257 melanoma
[14] = test system: SK-MEL-5 melanoma
[15] = test system: HCC-2998 colon
[16] = test system: SF-539 CNS
[17] = test system: NCI/ADR-RES ovarian

C=C1C(=O)OC2C3C(=C)[C@@H](OC(C)=O)CC3C(C)=CC(OC(=O)C(C)(OC(C)=O)C(C)OC(C)=O)[C@@H]12 (stereo not given in full)
TGI [1]: 33.4 µM
TGI [2]: > 100 µM
TGI [3]: 40.5 µM
TGI [4]: 27 µM
TGI [5]: 6.54 µM
TGI [6]: 25.7 µM
TGI [7]: 27.8 µM
TGI [8]: 21.9 µM
TGI [9]: 32.2 µM
TGI [10]: 11.4 µM
TGI [11]: 51.8 µM
TGI [12]: 31.7 µM
TGI [13]: 32.1 µM
TGI [14]: 25.3 µM
TGI [15]: 33.2 µM
TGI [16]: 33.5 µM

O=C(NNC(=S)NCc1ccccc1)c1csc(NC(=S)NC2CCCCC2)n1
TGI [17]: 96.4 µM
TGI [1]: > 100 µM
TGI [2]: > 100 µM
TGI [3]: 95.4 µM
TGI [4]: > 100 µM
TGI [5]: > 100 µM
TGI [6]: > 100 µM
TGI [7]: > 100 µM
TGI [8]: > 100 µM
TGI [10]: > 100 µM
TGI [11]: 64.7 µM
TGI [13]: 43 µM
TGI [14]: 28.2 µM
TGI [15]: > 100 µM
TGI [16]: > 100 µM

CCN(CC)C(=S)SC(C(=O)Nc1nnc(-c2ccccc2)o1)c1ccccc1 (stereo not given)
TGI [17]: 41.1 µM
TGI [1]: 62.7 µM
TGI [2]: > 100 µM
TGI [3]: > 100 µM
TGI [4]: 57.7 µM
TGI [6]: 24.5 µM
TGI [7]: 42 µM
TGI [8]: > 100 µM
TGI [9]: > 100 µM
TGI [10]: 49.2 µM
TGI [11]: 74.7 µM
TGI [12]: 39.8 µM
TGI [13]: 74.5 µM
TGI [14]: 28.8 µM
TGI [16]: 65.9 µM

CC(C)(C)OC(=O)NCCNCCNc1ccccc1
TGI [17]: > 100 µM
TGI [1]: > 100 µM
TGI [2]: > 100 µM
TGI [3]: > 100 µM
TGI [4]: > 100 µM
TGI [6]: > 100 µM
TGI [7]: > 100 µM
TGI [8]: > 100 µM
TGI [9]: > 100 µM
TGI [10]: > 100 µM
TGI [11]: > 100 µM
TGI [12]: > 100 µM
TGI [13]: > 100 µM
TGI [14]: > 100 µM
TGI [15]: > 100 µM
TGI [16]: > 100 µM

O=C1NNC2NC(=O)C3(NN2C1=O)c1ccccc1-c1ccccc13 (stereo not given)
TGI [17]: > 100 µM
TGI [2]: > 100 µM
TGI [4]: > 100 µM
TGI [5]: > 100 µM
TGI [6]: > 100 µM
TGI [7]: > 100 µM
TGI [8]: > 100 µM
TGI [9]: > 100 µM
TGI [10]: > 100 µM
TGI [11]: > 100 µM
TGI [12]: > 100 µM
TGI [13]: > 100 µM
TGI [14]: > 100 µM
TGI [15]: > 100 µM
TGI [16]: > 100 µM

CCN(CC)c1ccc(/C=C/C(=O)c2cc(C(C)(C)C)c(O)c(C(C)(C)C)c2)cc1
TGI [17]: 26.9 µM
TGI [1]: > 30.3 µM
TGI [2]: > 100 µM
TGI [4]: > 100 µM
TGI [5]: > 39.2 µM
TGI [6]: > 100 µM
TGI [7]: > 93.9 µM
TGI [8]: > 100 µM
TGI [9]: > 100 µM
TGI [10]: 10.2 µM
TGI [11]: 99.1 µM
TGI [12]: 39.1 µM
TGI [13]: > 100 µM
TGI [14]: 70.9 µM
TGI [15]: 37 µM
TGI [16]: 10.5 µM

Cn1c2ccccc2c(=O)c2cccc(C(=O)NCC(=O)O)c21
TGI [17]: > 100 µM
TGI [1]: > 100 µM
TGI [2]: > 100 µM
TGI [3]: > 100 µM
TGI [4]: > 100 µM
TGI [6]: > 100 µM
TGI [7]: > 100 µM
TGI [8]: > 100 µM
TGI [9]: > 100 µM
TGI [11]: > 100 µM
TGI [13]: > 100 µM
TGI [14]: > 100 µM
TGI [15]: > 100 µM
TGI [16]: > 100 µM

COc1nc2c(c(=O)n1C)N=C(c1ccccc1)[C@H](C(CC(=O)c1ccccc1)c1ccccc1)C(c1ccccc1)N2 (stereo not given in full)
TGI [17]: > 100 µM
TGI [1]: > 100 µM
TGI [2]: > 100 µM
TGI [4]: > 100 µM
TGI [5]: > 100 µM
TGI [7]: > 100 µM
TGI [8]: > 100 µM
TGI [9]: > 100 µM
TGI [10]: > 100 µM
TGI [11]: > 100 µM
TGI [12]: > 100 µM
TGI [13]: > 100 µM
TGI [14]: > 100 µM
TGI [15]: > 100 µM
TGI [16]: > 100 µM

CCOc1ccccc1-c1nc2c(s1)C(=O)c1ccccc1C2=O
TGI [1]: 29.8 µM
TGI [2]: 28.2 µM
TGI [3]: 63.9 µM
TGI [4]: 29.2 µM
TGI [5]: 4.4 µM
TGI [6]: > 100 µM
TGI [7]: 36.7 µM
TGI [8]: 23.4 µM
TGI [9]: 35 µM
TGI [10]: 97.7 µM
TGI [12]: 31.5 µM
TGI [13]: 27.3 µM
TGI [14]: 18.7 µM
TGI [15]: 29.5 µM
TGI [16]: 40.9 µM

CN1C(=O)C(O)CC1c1ccccc1C(F)(F)F (stereo not given)
TGI [17]: > 100 µM
TGI [1]: > 100 µM
TGI [2]: > 100 µM
TGI [4]: > 100 µM
TGI [5]: > 100 µM
TGI [6]: > 100 µM
TGI [7]: > 100 µM
TGI [8]: > 100 µM
TGI [9]: > 100 µM
TGI [10]: > 100 µM
TGI [11]: > 100 µM
TGI [12]: > 100 µM
TGI [13]: > 100 µM
TGI [14]: > 100 µM
TGI [15]: > 100 µM
TGI [16]: > 100 µM

CC(=O)OCC(C)(COC(C)=O)N1C(=O)C2C3c4ccccc4C(c4ccccc43)C2C1=O (stereo not given)
TGI [1]: > 100 µM
TGI [2]: > 100 µM
TGI [3]: > 100 µM
TGI [4]: > 100 µM
TGI [5]: > 100 µM
TGI [6]: > 100 µM
TGI [7]: > 100 µM
TGI [8]: > 100 µM
TGI [11]: > 100 µM
TGI [12]: > 100 µM
TGI [13]: > 100 µM
TGI [14]: > 100 µM
TGI [16]: > 100 µM

ONC1=Nc2ccccc2C(=S)N2CSCC12 (stereo not given)
TGI [17]: > 100 µM
TGI [1]: > 100 µM
TGI [2]: > 100 µM
TGI [3]: > 100 µM
TGI [4]: > 100 µM
TGI [6]: > 100 µM
TGI [7]: > 100 µM
TGI [8]: > 100 µM
TGI [9]: > 100 µM
TGI [10]: > 100 µM
TGI [11]: > 100 µM
TGI [12]: > 100 µM
TGI [13]: > 100 µM
TGI [14]: 99.2 µM
TGI [15]: > 100 µM

c1ccc(C(=NCCC2CNc3ccccc32)c2ccccc2)cc1 (stereo not given)
TGI [17]: > 100 µM
TGI [1]: > 100 µM
TGI [2]: > 100 µM
TGI [4]: > 100 µM
TGI [6]: > 100 µM
TGI [7]: > 100 µM
TGI [8]: > 100 µM
TGI [9]: > 100 µM
TGI [10]: > 100 µM
TGI [12]: > 100 µM
TGI [13]: > 100 µM
TGI [14]: > 100 µM
TGI [15]: > 100 µM

CN(C(=O)C1=CCC2(CC1)OCCO2)c1ccccc1I
TGI [17]: > 100 µM
TGI [1]: > 100 µM
TGI [2]: > 100 µM
TGI [3]: > 100 µM
TGI [4]: > 100 µM
TGI [5]: > 100 µM
TGI [6]: > 100 µM
TGI [7]: > 100 µM
TGI [8]: > 100 µM
TGI [9]: > 100 µM
TGI [10]: > 100 µM
TGI [11]: > 100 µM
TGI [13]: > 100 µM
TGI [14]: > 100 µM
TGI [15]: > 100 µM

COc1ccc(N=NC(=Nc2ccc(Cl)cc2)c2ccc(N(CCC#N)CCC#N)cc2)cc1
TGI [17]: > 100 µM
TGI [1]: > 100 µM
TGI [2]: > 100 µM
TGI [3]: 78 µM
TGI [4]: > 100 µM
TGI [6]: > 100 µM
TGI [7]: > 100 µM
TGI [8]: > 100 µM
TGI [9]: > 100 µM
TGI [10]: 45.3 µM
TGI [11]: > 100 µM
TGI [12]: > 100 µM
TGI [13]: 64.7 µM
TGI [14]: > 100 µM
TGI [15]: > 100 µM
TGI [16]: > 100 µM

From PubChem BioAssay (NCI)
